{
  "source": "ChEMBL document CHEMBL5523686",
  "about": "“Medicinal chemistry perspectives on the development of piperazine-containing HIV-1 inhibitors” (Bioorg Med Chem, 2024)",
  "key": {"[1]": {"tested_on": "Human immunodeficiency virus 2", "assay": "Antiviral activity against HIV-2 ROD infected in human MT4 cells assessed as inhibition of viral replication measured after 5 days by MTT spectrophotometric assay", "assay_type": "functional, organism-based", "details": "Human immunodeficiency virus 2, ROD, MT4, 120 h"}, "[2]": {"tested_on": "Human immunodeficiency virus 1", "assay": "Antiviral activity against HIV-1 IIIB infected in human MT4 cells assessed as inhibition of viral replication measured after 5 days by MTT spectrophotometric assay", "assay_type": "functional, organism-based", "details": "Human immunodeficiency virus 1, IIIB, MT4, 120 h"}, "[3]": {"tested_on": "Human immunodeficiency virus 1", "assay": "Antiviral activity against HIV-1 3B infected in human MT4 cells assessed as inhibition of viral replication incubated for 5 days by MTT assay", "assay_type": "functional, organism-based", "details": "Human immunodeficiency virus 1, 3B, MT4, 120 h"}, "[4]": {"tested_on": "Human immunodeficiency virus 1", "assay": "Antiviral activity against HIV1 IIIB infected in human MT4 cells assessed as inhibition of viral replication incubated for 3 to 7 days by MTT analysis", "assay_type": "functional, organism-based", "details": "Human immunodeficiency virus 1, IIIB"}, "[5]": {"tested_on": "Human immunodeficiency virus 1", "assay": "Antiviral activity against HIV1 Env pseudotyped virus infected in human HEK293T cells assessed as inhibition of viral growth incubated for 72 hrs by luciferase assay", "assay_type": "functional, organism-based", "details": "Human immunodeficiency virus 1, HEK-293T"}, "[6]": {"tested_on": "Human immunodeficiency virus 1", "assay": "Antiviral activity against wild type HIV1 IIIB infected in human MT4 cells assessed as inhibition of viral replication incubated for 3 to 5 days by MTT analysis", "assay_type": "functional, organism-based", "details": "Human immunodeficiency virus 1, IIIB"}, "[7]": {"assay": "Aqueous solubility of compound at pH 7", "assay_type": "physicochemical"}},
  "data": [
    {"smiles": "O=C1Nc2ccc(Cl)cc2[C@@](C#CC2CC2)(C(F)(F)F)N1", "values": [
      {"measurement": "IC50", "setting": "[1]", "value": 2.22, "unit": "µg/mL"},
      {"measurement": "IC50", "setting": "[2]", "value": 2.22, "unit": "µg/mL"},
      {"measurement": "IC50", "setting": "[3]", "value": 813, "unit": "nM"}
    ]},
    {"smiles": "Cn1c(N2CCNCC2)c(/N=N/c2ccc(Cl)cc2)c(N)nc1=O", "values": [
      {"measurement": "EC50", "setting": "[4]", "value": "> 3030", "unit": "nM"}
    ]},
    {"smiles": "COc1cnc(-n2cnc(C)n2)c2[nH]cc(C(=O)C(=O)N3CC(C)N(C(=O)c4ccccc4)C(C)C3)c12", "note": "(stereo not drawn)", "values": [
      {"measurement": "IC50", "setting": "[5]", "value": 0.14, "unit": "nM"}
    ]},
    {"smiles": "Cc1cc(C#N)cc(C)c1Oc1ccnc(Nc2ccc(N3CCN(S(C)(=O)=O)CC3)nc2)n1", "values": [
      {"measurement": "EC50", "setting": "[6]", "value": 2, "unit": "nM"}
    ]},
    {"smiles": "Cc1cc(C#N)cc(C)c1Oc1ccnc(Nc2ccc(N3CCN(S(C)(=O)=O)CC3)c(C#N)c2)n1", "values": [
      {"measurement": "EC50", "setting": "[6]", "value": 1, "unit": "nM"},
      {"measurement": "solubility", "setting": "[7]", "value": 13.5, "unit": "µg/mL"}
    ]}
  ]
}
